From ChEMBL document CHEMBL3507680, “University of Dundee, Gates Library screen for HepG2 cell viability”

Test: Human HepG2 cell viability assay in 384 well format
Type: toxicity, cell-based
Parameters: dose 125 nL, time 70.5 hour; concentration not given beside the values
Conditions: HepG2 cells, read-out: Inhibition

Structure (SMILES)	cytotoxicity at 70.5 h
Cc1nc(C)n(C2CCCN(C(=O)CCCc3ccccn3)C2)n1 (configuration not stated)	-7.71%
CCOc1ccccc1CCNC(=O)NCC(O)c1ccsc1 (configuration not stated)	-0.583%
CC(C)(C)OC(=O)N1CCN(C(=O)c2sccc2C2CC2)CC1	-10%
COc1ccc(C(C(=O)O)N2CCCN(C3CCCCC3)CC2)cn1 (configuration not stated)	-10.2%
CCOc1ccc(Cl)cc1CNCCCn1ccnc1	23.2%
COc1ccc(-c2nc(CN3CC(n4cccn4)C3)no2)cc1	-5.24%
c1cnc(-c2nc(CNCCn3cccn3)cs2)nc1	8.63%
O=S(=O)(C1CC1)N1CC[C@@H](OCC2CC2)[C@@H]1Cc1ccncc1	-4.77%
Cc1nc(C(C)C)cc(N2CCC3(CCC(=O)N(CC4CC4)C3)CC2)n1	-11%
CNS(=O)(=O)c1ccc(CN2CCCN(Cc3ccncc3)CC2)cc1	16.9%
CC(=O)N1CCCN(S(=O)(=O)c2cc3ccccc3o2)CC1	0.284%
CCOc1ccc(CNCc2ccc(C(=O)NC)cc2)cc1OCC	-7.21%
O=C(NCC1(O)CCOCC1)c1ccc(F)cc1	-4.94%
Cc1ccc(CN2CC[C@@]3(O)CCN(S(=O)(=O)N(C)C)C[C@H]3C2)cc1C	-16%
Cc1cnc(N2CCc3c(CNc4ccnc(C)n4)cncc3C2)nc1	18.6%
Cc1nc(CN2CCCC(CCc3ccccc3C)C2)c[nH]1 (configuration not stated)	19%
CCc1ccc(C(=O)N2CCC(Nc3ccc(C)nn3)CC2)o1	-4.81%
Cc1cc2cccc(NC(=O)N3CCC(N4CCSCC4)CC3)c2o1	-11%
CC(C)c1nc(CN2CCN(CC(O)c3ccccc3)CC2)no1 (configuration not stated)	-4.77%
COc1cc(N2C[C@@H]3COC[C@]3(C(=O)NC3CC(F)(F)C3)C2)ncn1	-4.63%
CCc1nc2ccccc2n1C(CC)C(=O)N(C)Cc1noc(C)n1 (configuration not stated)	-19.8%

Structure (SMILES)	cytotoxicity at 70.5 h
COC(=O)c1ccc(CNC2CC(=O)N(Cc3cccc(F)c3)C2)cc1 (configuration not stated)	0.023%
O=C(CN1CCOc2ccc(Cl)cc21)NCc1ncc[nH]1	-2.35%
Cc1ccn2ncc(C(=O)N3CCCC(n4cccn4)C3)c2n1 (configuration not stated)	-0.891%
N#CCCN(CCC#N)C(=O)c1cccc(N2CCNC2=O)c1	-7.77%
COc1ccc2c(c1)C(C(=O)N(C)CCn1ccnc1C)CC(=O)N2 (configuration not stated)	-3.22%
N#Cc1ccc(CS(=O)(=O)NC(=O)COc2ccc3c(c2)CCC3)cc1	-5.23%
Cc1ncsc1-c1nnc(C2CCN(CC3CCCCC3)CC2)o1	-8.62%
COCCN1CC[C@H](O)[C@@H]1Cc1ccccc1	-16.7%
CC(NC(=O)CN1CCN(c2ccncc2Cl)CC1)c1ccco1 (configuration not stated)	-7.35%
Cc1cncc(CN2C[C@@H](O)[C@H](Oc3ccccc3)C2)c1	-0.379%
CC(=O)Nc1ccccc1Sc1nc(Br)nn1C	-4.88%
Cc1cccc(Nc2nccnc2C2CCCN(CC(=O)N(C)C)C2)n1 (configuration not stated)	-7.55%
O=C(CNC(=O)c1ccccc1I)NCc1ccccc1F	-10.2%
Nc1cc(-c2c[nH]nc2C2CCCN2S(=O)(=O)c2ccccc2)ccn1 (configuration not stated)	-2.78%
Cc1nc2c(c(NC(C)C)n1)CCN(Cc1cccnc1)CC2	4.65%
C=C(C)COc1cccc(CNCCc2c[nH]cn2)c1	-6.28%
CCn1ncnc1C(C)NC(=O)Cc1cc2c(cc1Cl)OCCO2 (configuration not stated)	1.43%
COc1ccc(S(=O)(=O)NCCC(=O)NCc2ccoc2)cc1OC	-11.3%
Cc1ccc2c(c1)OCCCC2NC1CCN(C)CC1 (configuration not stated)	-0.243%
Cc1ncc(-c2ccnc(N3CCCCC3)n2)c(=O)[nH]1	-7.09%
Cn1cc(NC(=O)N2CCC(c3ccccc3)CC2)ccc1=O	-3.71%

Structure (SMILES)	cytotoxicity at 70.5 h
COc1ccccc1CC(=O)N1CC[C@H](O)[C@]2(CCCO2)C1	-6.73%
COCC(=O)N1CCC2(CC1)CC(COC)N(c1ncccn1)C2 (configuration not stated)	-5.32%
COc1ncc(-c2cc(-c3ccn(C)c3)nc(N)c2C#N)cn1	7.14%
Nc1nnc(CCCNC(=O)c2ccc(C3CCCNC3)cc2)s1 (configuration not stated)	8.02%
CC(C)NC(=O)N1CCC(c2nccn2C(C)C)CC1	-3.22%
CCC[C@H]1CN(S(C)(=O)=O)C[C@@H]1NC(=O)CCCn1ccnc1	1.51%
CNC(=O)CN1CCC2(CC1)C[C@@H](O)[C@H](c1ccccc1)NC2=O	-4.55%
O=C(NCC1CCOC1)N1CCN(Cc2ccc3c(c2)CCO3)CC1 (configuration not stated)	-4.97%
CN(C)c1nc(NCCc2ccnn2C)ncc1F	23.5%
COc1ccccc1C1CCN(C(=O)CN2C(=O)OC(C)(C)C2=O)CC1	-6.76%
O=C(NCC1(CO)CC1)c1ccccc1Br	-8.75%
COc1ccccc1CNC(Cc1cccs1)c1nc(C)cs1 (configuration not stated)	3.54%
Cc1ccc(CN(CCCn2ccnc2)Cc2cc(F)ccc2F)s1	20.3%
C[C@]1(O)CCN(Cc2cncs2)C[C@@H]1Oc1cccc(F)c1	-0.0777%
Cc1ccc(N2CC3(COCCN(Cc4cccnc4)C3)OCC2=O)s1 (configuration not stated)	26.6%
O=C(NCc1noc(C2CCCO2)n1)c1cn2ccsc2n1 (configuration not stated)	-9.32%
COCCNc1ccccc1CNC(=O)NCc1nc(C)c(C)s1	-7.21%
COc1ccccc1C1(O)CCCN(C(=O)c2cnc(SC)nc2)C1 (configuration not stated)	-3.73%
CC(CC(=O)NS(C)(=O)=O)C1CCCCC1 (configuration not stated)	-13.9%
O=C(CCCNc1ncccn1)Nc1ccc(Cn2cncn2)cc1	-10.8%
Cc1[nH]c2nc(CNc3cccc(Cl)c3)nn2c(=O)c1C	-11.7%

Structure (SMILES)	cytotoxicity at 70.5 h
Fc1cccc2ncnc(NCCCc3ccncc3)c12	-4.44%
Cc1ccccc1C(Nc1ncnc2c1CCNC2)c1ccccc1 (configuration not stated)	-1.58%
O=C(NCc1nn(-c2ccccc2)c2c1CCC2)NC1CCOCC1	-0.276%
CCCc1nc(C)c(C(=O)NCCN2CCOCC2)s1	21.3%
NC(=O)N1CCCC(c2nc(-c3cccnn3)no2)C1 (configuration not stated)	-5.18%
O=C(COCC(F)(F)C(F)F)N1CCC(c2ncc[nH]2)CC1	-5.35%
Cc1nc(N2CCCC2)nc2c1CCN(Cc1ccoc1)CC2	-6.88%
CN(CCc1ccncc1)C(=O)C1CSCN1C(=O)C1CCCC1 (configuration not stated)	-5.06%
CNc1snc(C)c1C(=O)N1CCCC(n2nc(C)cc2C)C1 (configuration not stated)	23.1%
CCCc1cc(C(=O)N2CCC3(CCCN(CCO)C3=O)C2)cs1 (configuration not stated)	-0.486%
Cc1cc(C2CCC2)nc(NCC(C)(C)N2CCCC2)n1	-16.9%
CCCOC(C)C(=O)N1CCC(O)(c2ccc3nc(C)ccc3c2)CC1 (configuration not stated)	-3.14%
COCC1CCN(S(=O)(=O)N2C[C@@H](C)[C@@](C)(O)C2)CC1	-0.99%
CC(C)c1nc(S(=O)(=O)N2CCSc3ccccc32)c[nH]1	-3.59%
CCC(CC)C(=O)N1CCCc2c(cnn2C)C1	-1.89%
Cn1cc(C(=O)Nc2ccc3c(c2)CN(C(=O)C2CC2)CC3)nn1	-8.54%
Cc1cc(CN2CC[C@H]3OCC[C@@]3(C(=O)NCc3ccco3)C2)no1	0.284%
Cc1ccc(CNc2n[nH]c(C)n2)cc1	-10.9%
COc1ccc(OCC(=O)NC(C)c2ccccc2)c(C(=O)O)c1 (configuration not stated)	-7.12%
